Results on 2 molecules are retold here after patent US20070117770A1, “Human ribosomal DNA (rDNA) and ribosomal RNA (rRNA) nucleic acids and uses thereof” (Cylene Pharmaceuticals, Inc., priority 2005, published 2007).

One experiment concerns the target Met(h) (Homo sapiens, UniProt P08581). In words: Protein kinase inhibition assay. The following applies: read-out: percent residual activity of Met(h). Format: biochemical. On the procedure: (§1) Certain compounds were tested for activity in protein kinase inhibition assays. All substrates were dissolved and diluted to working stocks in de-ionized water, apart from histone H1 (10× working stock in 20 mM MOPS pH 7.0), PDKtide (10× working stock in 50 mM Tris pH 7.0) ATF2 (which is typically stored at a 20× working stock in 50 mM Tris pH 7.5, 150 mM NaCl, 0.1 mM EGTA, 0.03% Brij-35, 50% glycerol, 1 mM benzamidine, 0.2 mM PMSF and 0.1% R-mercaptoethanol), KKLNRTLSFAEPG (SEQ ID NO:203) and RRRLSFAEPG (SEQ ID NO:204) (50 mM HEPES pH 7.4) and GGEEEEYFELVKKKK (SEQ ID NO:205) (20 mM MOPS pH 7.0). All kinases were pre-diluted to a 10× working concentration prior to addition into the assay. The composition of the dilution buffer for each kinase is detailed below.
In a final reaction volume of 25 μl, Met (h) (5-10 mU) is incubated with 8 mM MOPS pH 7.0, 0.2 mM EDTA, 250 μM KKKSPGEYVNIEFG (SEQ ID NO:207), 10 mM MgAcetate and [y-33P-ATP] (specific activity approx. 500 cpm/pmol, concentration as required). The reaction is initiated by the addition of the MgATP mix. After incubation for 40 minutes at room temperature, the reaction is stopped by the addition of 5 μl of a 3% phosphoric acid solution. 10 μl of the reaction is then spotted onto a P30 filtermat and washed three times for 5 minutes in 75 mM phosphoric acid and once in methanol prior to a drying and scintillation counting.

The next experiment addresses PDGFRα(h) (Homo sapiens, UniProt P16234). In words: Protein kinase inhibition assay. Format: biochemical. The note with it: read-out: percent residual activity of PDGFRα(h). On the procedure: as §1
In a final reaction volume of 25 μl, PDGFRα (h) (5-10 mU) is incubated with 8 mM MOPS pH 7.0, 0.2 mM EDTA, 0.1 mg/ml poly(Glu, Tyr) 4:1, 10 mM MnCl2, 10 mM MgAcetate and [gamma-33P-ATP] (specific activity approx. 500 cpm/pmol, concentration as required). The reaction is initiated by the addition of the MgATP mix. After incubation for 40 minutes at room temperature, the reaction is stopped by the addition of 5 μl of a 3% phosphoric acid solution. 10 μl of the reaction is then spotted onto a Filtermat A and washed three times for 5 minutes in 75 mM phosphoric acid and once in methanol prior to drying and scintillation counting.

The target of another experiment is PKCβII(h) (Homo sapiens, UniProt P05771). In words: Protein kinase inhibition assay. The following applies: read-out: percent residual activity of PKCβII(h). The format is biochemical. On the procedure: as §1
Sequence of PKCβII(h) (P05771 1-673 isoform P05771-2): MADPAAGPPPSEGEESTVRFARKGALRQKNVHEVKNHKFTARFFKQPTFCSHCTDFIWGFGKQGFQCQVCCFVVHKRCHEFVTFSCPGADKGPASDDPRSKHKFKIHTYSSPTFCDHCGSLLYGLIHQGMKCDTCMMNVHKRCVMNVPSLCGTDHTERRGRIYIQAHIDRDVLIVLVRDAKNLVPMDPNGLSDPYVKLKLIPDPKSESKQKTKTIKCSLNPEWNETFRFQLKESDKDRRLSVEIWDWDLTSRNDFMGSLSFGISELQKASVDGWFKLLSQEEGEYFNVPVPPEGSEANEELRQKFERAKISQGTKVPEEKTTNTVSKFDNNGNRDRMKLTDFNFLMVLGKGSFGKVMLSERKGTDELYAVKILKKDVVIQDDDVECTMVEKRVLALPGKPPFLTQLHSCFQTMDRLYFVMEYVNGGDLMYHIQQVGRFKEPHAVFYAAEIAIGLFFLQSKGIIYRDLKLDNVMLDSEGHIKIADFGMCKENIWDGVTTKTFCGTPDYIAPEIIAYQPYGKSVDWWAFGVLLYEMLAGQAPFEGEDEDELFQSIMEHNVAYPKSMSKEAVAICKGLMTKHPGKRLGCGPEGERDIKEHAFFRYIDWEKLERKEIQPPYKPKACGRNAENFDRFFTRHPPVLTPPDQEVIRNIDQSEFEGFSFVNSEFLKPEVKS
In a final reaction volume of 25 μl, PKCβII (h) (5-10 mU) is incubated with 20 mM HEPES pH 7.4, 0.03% Triton X-100, […], 0.1 mg/ml phosphatidylserine, 10 μg/ml diacylglycerol, 0.1 mg/ml histone H1, 10 mM MgAcetate and [gamma-33P-ATP] (specific activity approx. 500 cpm/pmol, concentration as required). The reaction is initiated by the addition of the MgATP mix. After incubation for 40 minutes at room temperature, the reaction is stopped by the addition of 5 μl of a 3% phosphoric acid solution. […]

The target in the next experiment is PRAK(h) (Homo sapiens, UniProt Q8IW41). In words: Protein kinase inhibition assay. Format: biochemical. The note with it: read-out: percent residual activity of PRAK(h). On the procedure:
as §1
In a final reaction volume of 25 μl, PRAK (h) (5-10 mU) is incubated with 50 mM Na R-glycerophosphate pH 7.5, 0.1 mM EGTA, 30 μM KKLRRTLSVA (SEQ ID NO:212), 10 mM MgAcetate and [gamma-33P-ATP) (specific activity approx. 500 cpm/pmol, concentration as required). The reaction is initiated by the addition of the MgATP mix. After incubation for 40 minutes at room temperature, the reaction is stopped by the addition of 5 μl of a 3% phosphoric acid solution. […]

A further experiment has as its system cells. Put plainly: Apoptosis by Annexin V binding (FACS). Format: cell-based. On the procedure:
Apoptosis was assessed by Annexin V binding in flow cytometry fluorescence activated cell sorting (FACS) assays. In such assays, cells were harvested and washed twice in PBS (4° C.) and resuspended at a concentration of 1×10^6 cells/ml in Binding Buffer (10× solution contains 0.1M HEPES/NaOH, pH7.4; […]; 25 mM CaCl2; PharMingen, 66121A). Cells were aliquotted (100 ul) into FACS tubes with Annexin V and/or viability dye. The tube contents were mixed gently and incubated for 15 minutes at room temperature in the dark. Binding Buffer (400 ul) was added to each tube and analyzed immediately by flow cytometry.
Annexin V is available in biotin, FITC (Annexin-V-FITC; PharMingen, 65874X) and PE (Annexin-PE; PharMingen, 65875X) formats. When using Annexin-V-FITC, Propidium Iodide (PI; Sigma, P 4170) was used as the viability marker (5 ul of a 50 ug/ml stock solution). When using Annexin-V-PE, 7-AminoActinomycin D (7-AAD; Sigma, A 9400) was the preferred viability marker (1 ug/ml final concentration) as there is less spectral overlap of PE and 7-AAD than PE and PI. While 7-AAD is not as bright as PI, FITC, PE and PI can be combined effectively. Tubes contained (i) cells alone, (ii) cells+Annexin, (iii) cells+PI (or 7-AAD) or (iv) cells+Annexin+PI (or 7-AAD) in some assays.

Sequence of Met(h) (P08581 25-1390): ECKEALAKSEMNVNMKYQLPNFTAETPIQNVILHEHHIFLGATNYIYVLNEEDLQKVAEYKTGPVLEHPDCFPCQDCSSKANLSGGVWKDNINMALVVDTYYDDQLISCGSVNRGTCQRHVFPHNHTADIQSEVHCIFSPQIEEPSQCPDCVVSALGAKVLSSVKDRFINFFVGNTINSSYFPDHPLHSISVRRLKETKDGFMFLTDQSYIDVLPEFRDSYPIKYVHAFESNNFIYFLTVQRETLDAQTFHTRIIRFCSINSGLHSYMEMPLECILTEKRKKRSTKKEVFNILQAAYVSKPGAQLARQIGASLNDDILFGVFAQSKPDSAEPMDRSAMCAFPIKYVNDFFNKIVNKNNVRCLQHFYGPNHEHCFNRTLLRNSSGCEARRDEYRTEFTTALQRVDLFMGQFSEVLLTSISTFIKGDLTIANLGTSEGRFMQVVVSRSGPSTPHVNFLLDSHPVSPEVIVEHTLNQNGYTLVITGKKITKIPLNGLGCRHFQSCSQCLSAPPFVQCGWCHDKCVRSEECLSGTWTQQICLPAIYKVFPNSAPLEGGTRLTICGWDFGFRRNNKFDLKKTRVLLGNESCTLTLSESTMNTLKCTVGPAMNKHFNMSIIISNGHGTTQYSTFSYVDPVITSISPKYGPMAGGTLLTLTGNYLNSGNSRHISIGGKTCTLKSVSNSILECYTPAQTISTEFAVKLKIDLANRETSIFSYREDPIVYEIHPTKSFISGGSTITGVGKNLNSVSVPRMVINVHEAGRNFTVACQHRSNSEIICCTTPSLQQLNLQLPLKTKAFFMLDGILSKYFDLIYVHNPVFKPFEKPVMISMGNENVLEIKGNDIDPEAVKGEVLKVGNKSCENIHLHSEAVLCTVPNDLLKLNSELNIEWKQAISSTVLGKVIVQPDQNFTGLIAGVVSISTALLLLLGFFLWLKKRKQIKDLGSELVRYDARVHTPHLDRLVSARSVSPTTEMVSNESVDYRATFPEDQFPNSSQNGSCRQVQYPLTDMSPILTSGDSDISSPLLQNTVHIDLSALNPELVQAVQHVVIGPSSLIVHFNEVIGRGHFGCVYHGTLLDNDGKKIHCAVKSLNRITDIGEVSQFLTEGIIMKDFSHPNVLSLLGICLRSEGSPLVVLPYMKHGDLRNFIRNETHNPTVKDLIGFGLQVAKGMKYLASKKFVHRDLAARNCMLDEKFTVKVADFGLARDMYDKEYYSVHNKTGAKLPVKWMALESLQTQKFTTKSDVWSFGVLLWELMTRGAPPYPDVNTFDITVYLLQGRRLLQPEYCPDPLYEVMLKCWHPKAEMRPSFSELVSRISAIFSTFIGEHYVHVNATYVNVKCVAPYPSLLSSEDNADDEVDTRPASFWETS
Sequence of PDGFRα(h) (P16234 24-1089): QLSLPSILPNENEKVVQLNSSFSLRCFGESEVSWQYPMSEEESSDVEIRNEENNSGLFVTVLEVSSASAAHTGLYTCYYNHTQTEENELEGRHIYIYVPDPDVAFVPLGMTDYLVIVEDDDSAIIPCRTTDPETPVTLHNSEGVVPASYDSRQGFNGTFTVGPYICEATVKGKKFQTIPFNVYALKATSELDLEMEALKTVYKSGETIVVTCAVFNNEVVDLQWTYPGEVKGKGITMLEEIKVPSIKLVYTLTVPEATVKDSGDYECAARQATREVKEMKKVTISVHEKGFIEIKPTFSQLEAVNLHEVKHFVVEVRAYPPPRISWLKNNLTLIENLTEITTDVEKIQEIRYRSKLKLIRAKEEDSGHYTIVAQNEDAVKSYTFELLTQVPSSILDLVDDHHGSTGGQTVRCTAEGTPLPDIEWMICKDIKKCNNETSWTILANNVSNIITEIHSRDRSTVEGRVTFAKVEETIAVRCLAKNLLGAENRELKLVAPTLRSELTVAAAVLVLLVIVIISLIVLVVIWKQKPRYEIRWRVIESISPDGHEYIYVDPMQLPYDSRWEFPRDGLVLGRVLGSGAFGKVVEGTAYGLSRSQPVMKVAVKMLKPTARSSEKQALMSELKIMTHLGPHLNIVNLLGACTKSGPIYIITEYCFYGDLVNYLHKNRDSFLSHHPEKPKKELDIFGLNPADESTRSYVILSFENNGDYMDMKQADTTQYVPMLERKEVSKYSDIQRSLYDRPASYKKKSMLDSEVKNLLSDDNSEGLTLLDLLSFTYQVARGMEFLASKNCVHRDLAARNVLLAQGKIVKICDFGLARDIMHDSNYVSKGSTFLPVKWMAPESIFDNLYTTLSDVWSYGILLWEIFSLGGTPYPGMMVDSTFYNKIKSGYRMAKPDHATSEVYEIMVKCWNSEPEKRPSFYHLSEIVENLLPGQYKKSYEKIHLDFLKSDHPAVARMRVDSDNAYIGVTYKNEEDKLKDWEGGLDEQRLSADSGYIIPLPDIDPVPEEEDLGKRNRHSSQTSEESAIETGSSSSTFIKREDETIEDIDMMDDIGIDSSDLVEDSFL
Sequence of PRAK(h) (Q8IW41 whole entry): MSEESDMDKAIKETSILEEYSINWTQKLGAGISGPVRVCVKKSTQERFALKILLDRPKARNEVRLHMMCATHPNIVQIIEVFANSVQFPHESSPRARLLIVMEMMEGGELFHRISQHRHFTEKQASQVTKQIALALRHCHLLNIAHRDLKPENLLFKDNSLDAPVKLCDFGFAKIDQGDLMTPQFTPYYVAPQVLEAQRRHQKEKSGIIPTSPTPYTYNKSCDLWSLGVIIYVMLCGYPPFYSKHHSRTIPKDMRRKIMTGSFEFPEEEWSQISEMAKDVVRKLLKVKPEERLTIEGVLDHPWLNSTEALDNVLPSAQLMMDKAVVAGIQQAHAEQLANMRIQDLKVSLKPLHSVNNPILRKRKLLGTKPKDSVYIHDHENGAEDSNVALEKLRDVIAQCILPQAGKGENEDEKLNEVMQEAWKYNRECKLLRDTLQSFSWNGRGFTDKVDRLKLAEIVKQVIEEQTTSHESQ

On to `CN1CCCC1CCNC(=O)c1cn2c3c(c(N4CCC(c5cnccn5)C4)c(F)cc3c1=O)Oc1cc3ccccc3cc1-2` (stereo not shown) [Compound A-1], for which the remaining activity at 2.5 µM at Met(h) is 132%; at PDGFRα(h), 108%; at PKCβII(h) it was 94%; at PRAK(h) it was 105%. Further, the induction of apoptosis result with cells is listed as “induced apoptosis”.

Take `CC(=O)N1CCN(c2ccc3c(=O)c(C(=O)NCCN4CCCC4)c4n(C)c5ccccc5n4c3n2)CC1` [Compound B-1]: the remaining activity at 2.5 µM worked out at 115% on Met(h), 106% at PDGFRα(h), 99% at PKCβII(h) and 111% on PRAK(h). Further, in the experiment on cells, the induction of apoptosis result is on record as “induced apoptosis following an efficient arrest of cell cycle progression”.
